# Literature values as cited in US20130281523A1, “LOW DOSE CANNABINOID MEDICAMENTS” (priority 2010, published 2013).
# System: rat model of sleep apnea
# Conditions: 10 mg/kg intraperitoneal injection
smiles,measurement,value
"CCCCCc1cc(O)c2c(c1)OC(C)(C)[C@@H]1CCC(C)=C[C@@H]21 [Dronabinol, Delta-9-tetrahydrocannabinol]",Breathing cessation during non-REM (NREM) sleep,reduced breathing cessation
